This series has as its system CCRIS mutagenicity, Ames/micronucleus/aberration tests. Briefly: CCRIS mutagenicity studies.
[1] abbreviates: Test System: AMES SALMONELLA TYPHIMURIUM, Strain/Indicator: TA1537, Metabolic Activation: NONE, Method: STANDARD PLATE.

The values that follow come from PubChem BioAssay AID1259407 (Chemical Carcinogenesis Research Information System (CCRIS), 2018).

Activity calls are given as the source filed them. How the calls were made is not given here.

`COc1cc([N+](=O)[O-])ccc1N=NC(C(C)=O)C(=O)Nc1ccccc1OC` (centres undefined): the mutagenic call was “inactive; negative” (Test System: AMES SALMONELLA TYPHIMURIUM, Strain/Indicator: TA97, Metabolic Activation: HAMSTER, LIVER, S-9, AROCLOR 1254 (10%), Method: PREINCUBATION); “inactive; negative” (Test System: AMES SALMONELLA TYPHIMURIUM, Strain/Indicator: TA97, Metabolic Activation: HAMSTER, LIVER, S-9, AROCLOR 1254 (30%), Method: PREINCUBATION); “inactive; negative” (Test System: AMES SALMONELLA TYPHIMURIUM, Strain/Indicator: TA97, Metabolic Activation: NONE, Method: PREINCUBATION); “inactive; negative” (Test System: AMES SALMONELLA TYPHIMURIUM, Strain/Indicator: TA97, Metabolic Activation: RAT, LIVER, S-9, AROCLOR 1254 (10%), Method: PREINCUBATION); “inactive; negative” (Test System: AMES SALMONELLA TYPHIMURIUM, Strain/Indicator: TA97, Metabolic Activation: RAT, LIVER, S-9, AROCLOR 1254 (30%), Method: PREINCUBATION); “inactive; negative” (Test System: AMES SALMONELLA TYPHIMURIUM, Strain/Indicator: TA98, Metabolic Activation: HAMSTER, LIVER, S-9, AROCLOR 1254 (10%), Method: PREINCUBATION). The mutagenic call is “inactive; negative” (Test System: AMES SALMONELLA TYPHIMURIUM, Strain/Indicator: TA98, Metabolic Activation: HAMSTER, LIVER, S-9, AROCLOR 1254 (30%), Method: PREINCUBATION); “inactive; negative” (Test System: AMES SALMONELLA TYPHIMURIUM, Strain/Indicator: TA98, Metabolic Activation: HAMSTER, LIVER, S-9, AROCLOR 1254, Method: STANDARD PLATE); “inactive; negative” (Test System: AMES SALMONELLA TYPHIMURIUM, Strain/Indicator: TA98, Metabolic Activation: NONE, Method: PREINCUBATION); “inactive; negative” (Test System: AMES SALMONELLA TYPHIMURIUM, Strain/Indicator: TA98, Metabolic Activation: NONE, Method: STANDARD PLATE); “inactive; negative” (Test System: AMES SALMONELLA TYPHIMURIUM, Strain/Indicator: TA98, Metabolic Activation: RAT, LIVER, S-9, AROCLOR 1254 (10%), Method: PREINCUBATION); “inactive; negative” (Test System: AMES SALMONELLA TYPHIMURIUM, Strain/Indicator: TA98, Metabolic Activation: RAT, LIVER, S-9, AROCLOR 1254 (30%), Method: PREINCUBATION). For the same molecule, the mutagenic call by setting is: (Test System: AMES SALMONELLA TYPHIMURIUM, Strain/Indicator: TA98, Metabolic Activation: RAT, LIVER, S-9, AROCLOR 1254, Method: STANDARD PLATE) “inactive; negative”; (Test System: AMES SALMONELLA TYPHIMURIUM, Strain/Indicator: TA100, Metabolic Activation: HAMSTER, LIVER, S-9, AROCLOR 1254 (10%), Method: PREINCUBATION) “inactive; negative”; (Test System: AMES SALMONELLA TYPHIMURIUM, Strain/Indicator: TA100, Metabolic Activation: HAMSTER, LIVER, S-9, AROCLOR 1254 (30%), Method: PREINCUBATION) “inactive; negative”; (Test System: AMES SALMONELLA TYPHIMURIUM, Strain/Indicator: TA100, Metabolic Activation: HAMSTER, LIVER, S-9, AROCLOR 1254, Method: STANDARD PLATE) “inactive; negative”; (Test System: AMES SALMONELLA TYPHIMURIUM, Strain/Indicator: TA100, Metabolic Activation: NONE, Method: PREINCUBATION) “inactive; negative”; (Test System: AMES SALMONELLA TYPHIMURIUM, Strain/Indicator: TA100, Metabolic Activation: NONE, Method: STANDARD PLATE) “inactive; negative”. Moreover, the mutagenic call was “inactive; negative” (Test System: AMES SALMONELLA TYPHIMURIUM, Strain/Indicator: TA100, Metabolic Activation: RAT, LIVER, S-9, AROCLOR 1254 (10%), Method: PREINCUBATION); “inactive; negative” (Test System: AMES SALMONELLA TYPHIMURIUM, Strain/Indicator: TA100, Metabolic Activation: RAT, LIVER, S-9, AROCLOR 1254 (30%), Method: PREINCUBATION); “inactive; negative” (Test System: AMES SALMONELLA TYPHIMURIUM, Strain/Indicator: TA100, Metabolic Activation: RAT, LIVER, S-9, AROCLOR 1254, Method: STANDARD PLATE); “inactive; negative” (Test System: AMES SALMONELLA TYPHIMURIUM, Strain/Indicator: TA1535, Metabolic Activation: HAMSTER, LIVER, S-9, AROCLOR 1254 (10%), Method: PREINCUBATION); “inactive; negative” (Test System: AMES SALMONELLA TYPHIMURIUM, Strain/Indicator: TA1535, Metabolic Activation: HAMSTER, LIVER, S-9, AROCLOR 1254 (30%), Method: PREINCUBATION); “inactive; negative” (Test System: AMES SALMONELLA TYPHIMURIUM, Strain/Indicator: TA1535, Metabolic Activation: HAMSTER, LIVER, S-9, AROCLOR 1254, Method: STANDARD PLATE). Further, the mutagenic call was “inactive; negative” (Test System: AMES SALMONELLA TYPHIMURIUM, Strain/Indicator: TA1535, Metabolic Activation: NONE, Method: STANDARD PLATE); “inactive; negative” (Test System: AMES SALMONELLA TYPHIMURIUM, Strain/Indicator: TA1535, Metabolic Activation: RAT, LIVER, S-9, AROCLOR 1254 (10%), Method: PREINCUBATION); “inactive; negative” (Test System: AMES SALMONELLA TYPHIMURIUM, Strain/Indicator: TA1535, Metabolic Activation: RAT, LIVER, S-9, AROCLOR 1254 (30%), Method: PREINCUBATION); “inactive; negative” (Test System: AMES SALMONELLA TYPHIMURIUM, Strain/Indicator: TA1535, Metabolic Activation: RAT, LIVER, S-9, AROCLOR 1254, Method: STANDARD PLATE); “inactive; negative” (Test System: AMES SALMONELLA TYPHIMURIUM, Strain/Indicator: TA1537, Metabolic Activation: HAMSTER, LIVER, S-9, AROCLOR 1254, Method: STANDARD PLATE); “inactive; negative” under setting [1]. The mutagenic call (Test System: AMES SALMONELLA TYPHIMURIUM, Strain/Indicator: TA1537, Metabolic Activation: RAT, LIVER, S-9, AROCLOR 1254, Method: STANDARD PLATE) was “inactive; negative”; the mutagenic call (Test System: AMES SALMONELLA TYPHIMURIUM, Strain/Indicator: TA1538, Metabolic Activation: HAMSTER, LIVER, S-9, AROCLOR 1254, Method: STANDARD PLATE) is “inactive; negative”; the mutagenic call (Test System: AMES SALMONELLA TYPHIMURIUM, Strain/Indicator: TA1538, Metabolic Activation: NONE, Method: STANDARD PLATE) is “inactive; negative”; the mutagenic call (Test System: AMES SALMONELLA TYPHIMURIUM, Strain/Indicator: TA1538, Metabolic Activation: RAT, LIVER, S-9, AROCLOR 1254, Method: STANDARD PLATE) is “inactive; negative”; the mutagenic call (Test System: MOUSE LYMPHOMA, Strain/Indicator: L5178Y (TK+/TK-), Metabolic Activation: NONE, Method: SUSPENSION/PLATE) was “inactive; negative. reevaluation of results: negative”; the mutagenic call (Test System: MOUSE LYMPHOMA, Strain/Indicator: L5178Y (TK+/TK-), Metabolic Activation: RAT, LIVER, S-9, AROCLOR 1254, Method: SUSPENSION/PLATE) was “inactive; negative. reevaluation of results: negative”.
For `CN(C)CCNC(=O)c1ccc2c(N)c3ccccc3nc2c1`, the mutagenic call under setting [1] is “inactive; negative”.
Take `CC[C@@]1(O)C[C@H](O[C@H]2C[C@H](N(C)C)[C@H](O)[C@H](C)O2)c2c(cc3c(c2O)C(=O)c2c(O)cccc2C3=O)[C@H]1C(=O)OC`: the mutagenic call was “active; positive” (Test System: AMES SALMONELLA TYPHIMURIUM, Strain/Indicator: TA102, Metabolic Activation: NONE, Method: STANDARD PLATE) and “active; positive” (Test System: AMES SALMONELLA TYPHIMURIUM, Strain/Indicator: TA104, Metabolic Activation: NONE, Method: STANDARD PLATE).
